In PubChem BioAssay AID1204 (EPA DSSTox, 2008):
Inconclusive results are not listed. The source made the active and inactive calls.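 The calls were made as follows: active = relative estrogen receptor binding affinity above 1E-5, where estradiol scores 100; inconclusive = weak binder, under half inhibition at top dose, or affinity below 1E-5; inactive = no binding seen, affinity zero.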

Tested on: estrogen receptor (rat uterine cytosol)
Test: DSSTox (NCTRER) National Center for Toxicological Research Estrogen Receptor Binding Database;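 as to relative binding affinity: ratio of estradiol IC50 over compound IC50 times 100 so estradiol equals 100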
Conditions: rat uterine cytosol ER competitive binding, RBA; ChemClass_ERB: Biphenyls PCBs; stronger effect = higher value
Description: Researchers within FDA's National Center for Toxicological Research (NCTR) generated a database of experimental estrogen receptor binding results for the express purpose of developing improved QSAR models to predict ER binding affinities.The NCTR ER database is a structurally diverse set of natural, synthetic, and environmental estrogens covering most known estrogenic classes and spanning a wide range of biological activity. It represents the largest published ER binding database of same-assay results generated in a single laboratory. […] Information on the percent purity and purchasing source for all chemicals are not included in the DSSTox SDF, but can be obtained from the original NCTR ER Source database and Main Citations listed below. The main citation (Fang et al., 2001) surveys the NCTR ER database from a chemical class based, structure-activity relationship (SAR) perspective. Qualitative SAR characteristics of the NCTR ER database are discussed and a set of general hierarchical rules for identifying potential estrogens are presented. The DSSTox NCTRER SDF augments the original NCTR ER database with chemical class and SAR information abstracted from Fang et al. (2001). The DSSTox SDF file supplements the measured ER relative binding affinity for each chemical (ER_RBA) with chemical class assignment to one of 6 major estrogenic classes further divided into 20 subclasses (ChemClass_ERB), along with a qualitative activity measure, ActivityCategory_ER_RBA. A brief narrative SAR rationale pertaining to ER RBA patterns observed by Fang et al. (2001) for each of the 20 subclasses within the database are provided in the field, ActivityCategory_Rationale_ChemClass_ERB. The original NCTR ER database, from which the expanded DSSTox NCTRER was formed, is contained within a larger Endocrine Disruptor Knowledge Base (EDKB) accessible from the FDA Source Website. That website provides online access to a relational database comprised of in vitro and in vivo experimental data for about 2000 natural and synthetic compounds, much of this extracted from the literature and representing testing in many laboratories. Data are included for biological assays that measure estrogenic and androgenic activity. Estrogenic endpoints include in vitro assays for estrogen receptor competitive binding affinity, cell proliferation, and reporter-gene assays, and in vivo assays for uterotrophic activity (i.e., uterine weight gain and vaginal cornification). The database also contains a bibliography of over 1200 citations, many of which include abstracts.
Estrogen receptor relative binding affinity is determined using a competitive receptor binding assay as described in NCTRER Ref (Blair et al., 2000). Briefly, a chemical competes with radiolabeled E2 (i.e., estradiol) for binding to the ER in rat uterine cytosol and the concentration of chemical that causes 50% inhibition of E2 binding (i.e., IC50) is measured. The ER_RBA is calculated by dividing the IC50 of E2 (9X10-10M) by the IC50 of the competitor and multiplying by 100 (E2 RBA = 100). The validated assay tested 1nM E2 with concentrations of competitor ranging from 1nM to 1mM. The larger the ER_RBA values, the greater the binding affinity; ER_RBA > 100 means compound has greater binding affinity than natural ER ligand, E2. […] Activity Score is mapping of LOG_ER_RBA values (ER-RBA>1E-5), spanning activity range [MIN, MAX] onto Integer 20-100 Activity range, where 100 is highest potency and 20 is lowest active potency. If Activity Outcome is "active": Activity Score = 80 * INTEGER[(LOG_ER_RBA - MIN)/(MAX […] MIN)]. If Activity Outcome is "inconclusive" (i.e., slight binder): Activity Score = 5.

SMILES | relative binding affinity
Oc1ccc(-c2cc(Cl)ccc2Cl)cc1 | 0.0363%
Oc1ccc(-c2ccccc2)c(Cl)c1 | 0.00169%

Same assay, conditions: rat uterine cytosol ER competitive binding, RBA; ChemClass_ERB: Biphenyls nonchlorinated

SMILES | outcome
Oc1ccccc1-c1ccccc1 | inactive

Same assay, conditions: rat uterine cytosol ER competitive binding, RBA; ChemClass_ERB: DES Derivatives; stronger effect = higher value

SMILES | relative binding affinity
Oc1ccc(/C=C/c2ccc(O)cc2)cc1 | 0.282%
CC/C(=C(/CC)c1ccc(O)cc1)c1ccc(O)cc1 | 398%

Same assay, conditions: rat uterine cytosol ER competitive binding, RBA; ChemClass_ERB: DES Hexestrol derivatives; stronger effect = higher value

SMILES | relative binding affinity
Oc1ccc(CCc2ccc(O)cc2)cc1 | 0.0363%
Oc1ccc(CCc2ccccc2)cc1 | 0.00204%

Same assay, conditions: rat uterine cytosol ER competitive binding, RBA; ChemClass_ERB: DES Triphenylethylenes; stronger effect = higher value

SMILES | relative binding affinity
C(=C(c1ccccc1)c1ccccc1)c1ccccc1 | 0.00165%
CC/C(=C(\c1ccccc1)c1ccc(OCCN(C)C)cc1)c1ccc(O)cc1 | 174%

Same assay, conditions: rat uterine cytosol ER competitive binding, RBA; ChemClass_ERB: Diphenylmethanes Benzophenones

SMILES | outcome
COc1ccc(C(=O)c2ccccc2)c(O)c1 | inactive
COc1ccc(C(=O)c2ccccc2O)c(O)c1 | inactive

Same assay, conditions: rat uterine cytosol ER competitive binding, RBA; ChemClass_ERB: Diphenylmethanes Benzophenones; stronger effect = higher value

SMILES | relative binding affinity
O=S(=O)(c1ccc(O)cc1)c1ccc(O)cc1 | 0.00085%
O=C(c1ccccc1)c1ccc(O)cc1O | 0.00245%

Same assay, conditions: rat uterine cytosol ER competitive binding, RBA; ChemClass_ERB: Diphenylmethanes DDTs

SMILES | outcome
Clc1ccc(C(c2ccc(Cl)cc2)C(Cl)(Cl)Cl)cc1 | inactive
COc1ccc(C(c2ccc(OC)cc2)C(Cl)(Cl)Cl)cc1 | inactive
Clc1ccc(C(c2ccc(Cl)cc2)C(Cl)Cl)cc1 | inactive

Same assay, conditions: rat uterine cytosol ER competitive binding, RBA; ChemClass_ERB: Diphenylmethanes DDTs; stronger effect = higher value

SMILES | relative binding affinity
Oc1ccc(C(=C(Cl)Cl)c2ccc(O)cc2)cc1 | 2.63%
Clc1ccc(C(c2ccccc2Cl)C(Cl)(Cl)Cl)cc1 (stereo unspecified) | 0.00141%
COc1ccc(C(=C(Cl)Cl)c2ccc(O)cc2)cc1 | 0.234%

Same assay, conditions: rat uterine cytosol ER competitive binding, RBA; ChemClass_ERB: Diphenylmethanes Diphenolalkanes; stronger effect = higher value

SMILES | relative binding affinity
Oc1ccc(Cc2ccc(O)cc2)cc1 | 0.00095%
CC(C)(c1ccccc1)c1ccc(O)cc1 | 0.00501%
O=C(O)c1ccccc1C(c1ccc(O)cc1)c1ccc(O)cc1 | 0.00021%

Same assay, conditions: rat uterine cytosol ER competitive binding, RBA; ChemClass_ERB: Misc

SMILES | outcome
CCCCOC(=O)c1ccccc1C(=O)OCCCC | inactive
C=CC(C)(O)CC/C=C(\C)CCC=C(C)C (stereo unspecified) | inactive
CCCCOC(=O)c1ccc(N)cc1 | inactive
CCCCc1ccccc1 | inactive
COC(=O)c1ccccc1C(=O)OC | inactive
CCNc1nc(Cl)nc(NC(C)C)n1 | inactive
CCOC(=O)c1ccccc1C(=O)OCC | inactive
CC(C)COC(=O)c1ccccc1C(=O)OCC(C)C | inactive
O=S(=O)(O)c1ccc2c(N=Nc3ccc(S(=O)(=O)O)c4ccccc34)c(O)c(S(=O)(=O)O)cc2c1 | inactive
ClC1=C(Cl)[C@]2(Cl)[C@@H]3[C@@H]4C[C@@H]([C@H]5O[C@@H]45)[C@@H]3[C@@]1(Cl)C2(Cl)Cl | inactive
ClC1=C(Cl)[C@]2(Cl)[C@@H]3[C@H]4C=CC(C4)[C@@H]3C1(Cl)C2(Cl)Cl | inactive
O=C(O)/C=C/c1ccccc1 | inactive
CNC(=O)Oc1cccc2ccccc12 | inactive
O=C1CCC(N2C(=O)c3ccccc3C2=O)C(=O)N1 (stereo unspecified) | inactive
